The structures appear in SMILES notation.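 These data come from cells grown in 96-well plates and exposed to compound for 48 hours at five concentrations. TGI: concentration producing complete growth inhibition.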 Where a SMILES comes first, the peptide text is derived from it. The star is where a group is joined. Boc = CC(C)(C)OC(=O)*; tBu = CC(C)(C)*

Among the test systems are 786-0 renal; RXF 393 renal; MDA-N; DU-145 prostate; OVCAR-3 ovarian; NCI-H460 lung; HCT-116 colon; M14 melanoma; COLO 205 colon; U251 CNS; BT-549 breast.
Assay in all cases: NCI anticancer screen, dose series, 48 h

Take `CC(OC(C)(C)C)C(NC(=O)C(N)CCCCNC(=O)OC(C)(C)C)C(=O)NC(Cc1ccccc1)C(=O)O` (stereo not drawn) (H-Lys(Boc)-Thr(tBu)-Phe-OH; configuration not given here): the TGI in the assay with 786-0 renal, with RXF 393 renal, with MDA-N, with DU-145 prostate, in the assay with OVCAR-3 ovarian and in the assay on NCI-H460 lung was > 100 µM in each case. Besides, the TGI with HCT-116 colon, with M14 melanoma, with COLO 205 colon, in the assay on U251 CNS and with BT-549 breast was > 100 µM in each case.

As to `CC(=O)N1c2ccccc2[C@H]2CCc3c([nH]c4ccccc34)[C@H]21`, the TGI in the assay on 786-0 renal came to 32.2 µM; in the assay with RXF 393 renal it was 28.4 µM; in the assay with MDA-N, 49.3 µM; in the assay on DU-145 prostate, 61.9 µM; in the assay with OVCAR-3 ovarian it was 31.6 µM; in the assay on NCI-H460 lung it was 23.3 µM. The TGI was determined as 11.4 µM with HCT-116 colon; 30.9 µM in the assay on M14 melanoma; 27.6 µM with COLO 205 colon; 26.5 µM in the assay with U251 CNS; 30 µM in the assay on BT-549 breast.

For `CCOC(=O)C(C)(Cc1ccc(O)cn1)NC(=O)c1ccccc1` (stereo not drawn), the TGI in the assay with 786-0 renal, in the assay with RXF 393 renal, in the assay with MDA-N, in the assay with DU-145 prostate, with OVCAR-3 ovarian and with NCI-H460 lung was > 100 µM in each case. Besides, the TGI in the assay on HCT-116 colon, with M14 melanoma, in the assay with COLO 205 colon, in the assay with U251 CNS and with BT-549 breast was > 100 µM in each case.

(Values after PubChem BioAssay (NCI).)
